For series [1] the following is noted: comparison value; cited from earlier work.
Series [2] in a line: Decomposition monitored by 1H NMR spectroscopy (carbanion yield, kinetics, half-life). Format: physicochemical. The conditions noted are these: 10% D2O. The text has this:
[…] In each case, the bottom spectrum was collected at the start of the experiment, and the top spectrum after complete decomposition.
NMR spectra were obtained on a Bruker Avance 400 MHz FT-NMR spectrometer. […] High-resolution mass spectra were obtained on a VG Analytical VG70SE magnetic sector mass spectrometer operating in fast atom bombardment (FAB) mode. […]

Series [3] in a line: N2O headspace analysis (GC) of HNO production, relative to Angeli's salt. The class given is physicochemical. The conditions noted are these: for HNO / N2O production (in words): decomposition at pH 7.4; for % HNO: donor 0.1 mM, 37° C., PBS pH 7.4, yield relative to Angeli's salt by N2O headspace analysis, SEM ±5%, n = 3. As for the experimental part: Nitrous oxide is produced via the dimerization and dehydration of HNO, and is the most common marker for HNO production (Fukuto, J. M. et al., Chem. Res. Toxicol. 2005, 18, 790-801).
Gas chromatography was performed on a Varian CP-3800 instrument equipped with a 1041 manual injector, electron capture detector, and a 25 m 5 Å molecular sieve capillary column. Grade 5.0 nitrogen was used as both the carrier (8 mL/min) and the make-up (22 mL/min) gas. The injector oven and the detector oven were kept at 200° C. and 300° C., respectively. All nitrous oxide analyses were performed with the column oven held constant at 150° C. All gas injections were made using a 100 μL gastight syringe with a sample-lock. Samples were prepared in 15 mL amber headspace vials with volumes pre-measured for sample uniformity (actual vial volume ranges from 15.19-15.20 mL). Vials were charged with 5 mL of PBS buffer containing DTPA, purged with argon, and sealed with a rubber septum. The vials were equilibrated for at least 10 minutes at 37° C. in a dry block heater. A 10 mM stock solution of Angeli's salt (AS) was prepared in 10 mM sodium hydroxide, and HNO donors 1a-4a, 6a (10 mM) were prepared in acetonitrile or methanol and used immediately after preparation. From these stock solutions, 50 μL was introduced into individual thermally-equilibrated headspace vials using a gastight syringe, yielding final substrate concentrations of 0.1 mM. Substrates were then incubated long enough to ensure complete decomposition and equilibration of N2O with the headspace. The headspace (60 μL) was then sampled and injected five successive times using a gastight syringe with a sample lock. This was repeated for n≧3 vials per donor. The nitrous oxide yield was averaged and reported relative to the standard, Angeli's salt. For chemical trapping of HNO, glutathione (100 μL of 10 mM in PBS) was added prior to HNO donor addition to give a final glutathione concentration of 0.2 mM, and headspace sampling for N2O was analogously performed as stated above.

In the next series the test system is Sprague-Dawley rats. In words: Acute cardiovascular effects, pressure-volume (PV) loop analysis in anesthetized rats. The class given is in vivo, rat. The conditions noted are these: IV infusion 100 μg/kg/min, 5 rats. As for the experimental part: The acute cardiovascular effects of compounds 4a and 6a, when administered intravenously to Sprague-Dawley rats at an infusion rate of 100 μg/kg/min, were examined by means of pressure-volume (PV) curve (loops) analysis. PV families/relationships were generated via pre-load variation and hemodynamic indices were compared to baseline values. Each test article was administered to 5 rats.
Rats were intraperitoneally (IP) anesthetized to effect with pentobarbital (˜50 mg/kg), shaved and positioned in dorsal recumbence, endotracheally intubated and ventilated […], ˜2.5 mL tidal volume with 95% O2/5% CO2) with an adjustable small animal ventilator (Harvard Apparatus). Anesthesia was maintained with a continuous pentobarbital infusion (to effect, ˜3 to 5 mg/kg/h, IV) until completion of the experiment via an indwelling catheter placed in a femoral vein. Subsequently, transthoracic needle electrodes forming a single-lead ECG were placed. For LV mechano-energetic evaluation, the right carotid artery was isolated, dissected free from the surrounding tissue, and cannulated with a 2F high-fidelity conductance/micromanometer catheter (Millar Instruments). This catheter was advanced retrograde across the aortic valve and into the LV chamber in order to simultaneously determine left-ventricular pressure and volume (via conductivity). […] Meanwhile, in order to record arterial pressures, a 2F high-fidelity micromanometer catheter (Millar Instruments) was inserted into a femoral artery and advanced towards the abdominal aorta. Finally, an in-dwelling catheter was placed into the jugular vein for administration of test article.
Following collection of baseline hemodynamic data, infusion of test article was initiated at an infusion rate of 100 μg/kg/min; at 10 μL/min. Pressure-volume analyses were performed again approximately 30 min and 45 min after the initiation of the dose.
The resulting left-ventricular pressure and volume data was analyzed offline (IOX/ECG Auto; EMKA Technologies) in order to generate relationships representing the contractile and energetic state of the myocardium. Systolic (SAP), diastolic (DAP), and mean (MAP) arterial pressures were collected. Left-ventricular mechanical and/or geometrical indices were obtained from the pressure (ESP, EDP, dP/dt max/min, time-constant of relaxation—tau [based on mono-exponential decay with non-zero asymptote]) and volume (ESV, EDV, SV) signal. In addition, the following measurements were derived from left-ventricular pressure-volume data (PV loops) generated during brief periods of preload reduction: • Pressure volume area (PVA) and stroke work (SW). • End-systolic (ESPVR) and end-diastolic (EDPVR) pressure volume relationships. • End systolic pressure and stroke volume relationship (Arterial Elastance, Ea).
Data are presented as means with standard errors (mean±SEM) in Table 6.

The nature of series [4]: Decomposition kinetics monitored by UV-Vis spectroscopy. The class given is physicochemical. The procedure:
NMR spectra were obtained on a Bruker Avance 400 MHz FT-NMR spectrometer. […] High-resolution mass spectra were obtained on a VG Analytical VG70SE magnetic sector mass spectrometer operating in fast atom bombardment (FAB) mode. […] Phosphate-buffered saline (PBS) solutions (0.1 M) were prepared with 140 mM NaCl and 3 mM KCl, with 100 μM diethylenetriaminepentaacetic acid (DTPA), adjusted to pH 7.4.

Where [5] appears, read: PBS, pH 7.4, Condition G: pH 7.4, 37° C., 0.25M PBS, 100 μL DTPA, air (1H NMR).
The mark [6] stands for this setting: PBS, pH 7.4, Condition B: pH 7.4, 37° C., 0.25M PBS, no chelator, air (1H NMR).

Molecules are shown by their SMILES. Structures can show the parent of a compound that is named as a salt.

For the molecule `CN1C(=O)CC(=O)N(C)C1=O` [N,N-dimethyl barbituric acid], the pKa (commonly the pH at which an ionisable group is half protonated) in series [1] is on record as 4.7.

On to `CC1=NN(c2ccccc2Cl)C(=O)C1(C)NO` (stereo not shown) [Compound 11a, 4-(N-hydroxylamine)-4-methyl-N-(2-chlorophenyl)-5-methyl-pyrazolone], for which the half-life in series [2] (setting [5]) is 120 h.

In the case of `CC1=NN(c2ccccc2)C(=O)C1` [edaravone], the pKa in series [1] was 7.

For the molecule `CCC1(NO)C(=O)N(C)C(=O)N(C)C1=O` [Compound 3a, 5-(N-hydroxylamine)-5-ethyl-N,N-dimethylbarbituric acid hydrochloride], in series [3], the “HNO / N2O production (in words)” value was “produced little HNO” and the “% HNO” value came out at 2%.

Take `CC1=NN(c2ccccc2)C(=O)C1(C)NO` (stereo not shown) [Compound 8a, 4-(N-hydroxylamine)-4-methyl-N-phenyl-5-methyl-pyrazolone]: the half-life is 16 h in series [2] (setting [6]); 28 h in series [2] (PBS, pH 7.4, Condition C: pH 7.4, 37° C., 0.25M PBS, 100 μL DTPA, BME (20 equiv.), argon (1H NMR)); 50 h in series [2] (PBS, pH 7.4, Condition D: pH 7.4, 37° C., 0.25M PBS, 100 μL DTPA, GSH (2 equiv.), argon (1H NMR)); 100 h in series [2] (PBS, pH 7.4, Condition E: pH 7.4, 37° C., 0.25M PBS, 100 μL DTPA, 12b (1 equiv.), air (1H NMR)).

Regarding `CC1=NNC(=O)C1(C)NO` (stereo not shown) [Compound 12a, 4-(N-hydroxylamine)-4-methyl-5-methyl-pyrazolone], the “% remains after 7 d” value in series [2] (Condition G: pH 7.4, 37° C., 0.25M PBS, 100 μL DTPA, air (1H NMR)) turned out to be 70% remains after 7 d.

On to `CC1(C)OC(=O)CC(=O)O1` [Meldrum's acid], for which the pKa in series [1] is listed as 4.8.

For the molecule `CC1(C)OC(=O)C(C)(NO)C(=O)O1` [Compound 1a, 5-(N-hydroxylamine)-5-methyl-Meldrum's acid hydrochloride monohydrate], in series [3], the “HNO / N2O production (in words)” value is on record as “only trace amounts of N2O” and the “% HNO” value amounted to 2%.

For the molecule `CO/N=C(\C)C1(NO)C(=O)N(C)C(=O)N(C)C1=O` [Compound 4a, 5-(N-hydroxylamine)-5-(acetyl-O-methoxyoxime)-N,N-dimethylbarbituric acid], the “HNO / N2O production (in words)” value in series [3] is recorded as “high yield of N2O”. Besides, the “% HNO” value in series [3] came out at 110%. Further, in the series on Sprague-Dawley rats (baseline 124 (4a) / 138 (6a)), the “Mean Blood Pressure” value came out at 71 mmHg. Further, the “Stroke Volume” value with Sprague-Dawley rats (mean, baseline 1 (4a) / 2.2 (6a)) turned out to be 1.2 relative volume units. In addition, in the series on Sprague-Dawley rats (mean, baseline 1.7 (4a) / 1.8 (6a)), the “End Diastolic Pressure Volume Relationship” value is reported as 1.6. For the same molecule, the “End Diastolic Pressure” value with Sprague-Dawley rats (mean, baseline 4.7 (4a) / 4.4 (6a)) was determined as 3.4 mmHg. In the series on Sprague-Dawley rats (mean, baseline 8.5 (4a) / 8.7 (6a)), this molecule displayed a Tau of 7.8 ms. The “Arterial Elastance” value in the series with Sprague-Dawley rats (mean, baseline 9.2 (4a) / 7.4 (6a)) is 4.8. The “End Diastolic Volume” value in the series with Sprague-Dawley rats (mean, baseline 14.6 (4a) / 19.2 (6a)) is given as 15 relative volume units. Moreover, in the series on Sprague-Dawley rats (mean, baseline 28.1 (4a) / 23.7 (6a)), the “End Systolic Pressure Volume Relationship” value turned out to be 34.1. The “Pre-Load Recruitable Stroke Work” value in the series with Sprague-Dawley rats (mean, baseline 37.6 (4a) / 42.8 (6a)) is recorded as 54.3. For the same molecule, the “Diastolic Blood Pressure” value in the series with Sprague-Dawley rats (mean, baseline 109 (4a) / 121 (6a)) was 62 mmHg. Further, the “Stroke Work” value in the series with Sprague-Dawley rats (mean, baseline 112 (4a) / 227 (6a)) is on record as 74 relative volume units × mmHg. The “End Systolic Pressure” value in the series on Sprague-Dawley rats (mean, baseline 134 (4a) / 141 (6a)) was 71 mmHg. Also, the “Systolic Blood Pressure” value in the series on Sprague-Dawley rats (mean, baseline 147 (4a) / 160 (6a)) is reported as 85 mmHg. Moreover, the “Pressure Volume Area” value with Sprague-Dawley rats (mean, baseline 343 (4a) / 590 (6a)) turned out to be 151. For the same molecule, the “Heart Rate” value in the series on Sprague-Dawley rats (mean, baseline 365 (4a) / 340 (6a)) is reported as 350 bp, m. Further, the “Left Ventricular +dP/dt” value with Sprague-Dawley rats (mean, baseline 6392 (4a) / 7689 (6a)) was 3518 mmHg/s. The “Left Ventricular −dP/dt” value with Sprague-Dawley rats (mean, baseline −7585 (4a) / −8257 (6a)) was −4096 mmHg/s. The half-life in series [4] (buffer, pH 4, pH 4.0 and room temperature, read-out: half-life (converted)) is around 24 h; in series [4] (buffer, pH 7.4, footnote c not given, pH 7.4, 37° C., read-out: t1/2), 0.0117 h; in series [4] (buffer, pH 7.4, pH 7.4 and 37° C., read-out: half-life (converted)), around 0.0167 h. For the same molecule, the “pH near which the decomposition rate sharply increases” value in series [4] (decomposition rate as a function of pH at 25° C., UV-Vis) was around 8. The “decomposition rate constant k (single exponential fit)” value in series [2] (4a to 4b, PBS, pH 7.4, room temperature) came out at 0.0024 s⁻¹.

Molecule `CC1=NN(c2ccc(Cl)cc2)C(=O)C1(C)NO` (stereo not shown) [Compound 10a, 4-(N-hydroxylamine)-4-methyl-N-(4-chlorophenyl)-5-methyl-pyrazolone] showed a half-life in series [2] (setting [5]) of 84 h.

`CC1=NN(C)C(=O)C1(C)NO` (stereo not shown) [Compound 9a, 4-(N-hydroxylamine)-4-methyl-N-methyl-5-methyl-pyrazolone]: in series [2] (Condition F: pH 7.4, 37° C., 0.25M PBS, no chelator, nitrogen (1H NMR)), the “% remains after 48 h” value was found to be 84% remains after 48. Besides, the half-life in series [2] (setting [6]) is 48 h.

For `CO/N=C(\C)C1(NO)C(=O)OC(C)(C)OC1=O` [Compound 2a, 5-(N-hydroxylamine)-5-(acetyl-O-methoxyoxime)-Meldrum's acid], in series [3], the “HNO / N2O production (in words)” value is reported as “enhanced HNO yield” and the “% HNO” value was 25%. For the same molecule, the half-life in series [4] (PBS, pH 7.4, footnote c not given, pH 7.4, 37° C., read-out: t1/2) stood at 0.015 h.

Values taken from patent publication US9499511B2, “N-substituted hydroxylamine derivatives with carbon-based leaving groups” (The Johns Hopkins University, priority 2011, dated 2016).
